Test results: patent US7001907B2, “Peptide-containing α-ketoamide cysteine and serine protease inhibitors” (Cephaon, Inc., priority 1997, dated 2006)

target: T1, Recombinant human calpain I (Homo sapiens, UniProt P07384); test: Inhibition of cysteine protease activity: calpain I, Succ-Leu-Tyr-MNA substrate hydrolysis; format: biochemical; details: Table 2, linear α-ketoamides
T1 construct: made in house
T1 sequence (P07384 1-714): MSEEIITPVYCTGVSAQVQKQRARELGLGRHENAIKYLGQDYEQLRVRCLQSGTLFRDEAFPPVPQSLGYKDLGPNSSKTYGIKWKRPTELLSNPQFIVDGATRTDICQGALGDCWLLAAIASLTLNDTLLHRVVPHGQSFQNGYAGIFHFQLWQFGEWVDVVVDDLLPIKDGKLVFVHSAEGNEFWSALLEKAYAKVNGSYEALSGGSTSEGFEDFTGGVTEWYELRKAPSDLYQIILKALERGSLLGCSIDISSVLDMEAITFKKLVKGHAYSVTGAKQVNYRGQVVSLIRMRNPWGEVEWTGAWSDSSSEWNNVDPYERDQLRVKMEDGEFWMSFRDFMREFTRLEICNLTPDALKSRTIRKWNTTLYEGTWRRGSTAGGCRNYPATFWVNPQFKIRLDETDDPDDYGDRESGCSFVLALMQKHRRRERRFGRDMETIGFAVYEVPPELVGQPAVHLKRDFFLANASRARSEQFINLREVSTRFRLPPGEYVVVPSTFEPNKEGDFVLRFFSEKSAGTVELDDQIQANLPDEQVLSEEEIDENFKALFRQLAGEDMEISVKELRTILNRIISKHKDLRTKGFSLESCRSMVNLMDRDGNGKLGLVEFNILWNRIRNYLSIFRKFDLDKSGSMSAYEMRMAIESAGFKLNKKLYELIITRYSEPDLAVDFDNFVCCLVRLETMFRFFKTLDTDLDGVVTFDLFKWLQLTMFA
T1 sequence (P04632 1-268 partner): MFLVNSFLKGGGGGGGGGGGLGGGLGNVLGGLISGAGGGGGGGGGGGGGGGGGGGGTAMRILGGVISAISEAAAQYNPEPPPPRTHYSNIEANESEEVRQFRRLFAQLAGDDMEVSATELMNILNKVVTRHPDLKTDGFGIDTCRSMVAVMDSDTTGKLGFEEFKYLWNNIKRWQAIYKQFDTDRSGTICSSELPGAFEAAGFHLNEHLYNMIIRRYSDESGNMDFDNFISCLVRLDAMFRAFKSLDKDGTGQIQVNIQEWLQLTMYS
Procedure: To evaluate inhibitory activity, stock solutions (40 times concentrated) of each compound to be tested were prepared in 100% anhydrous DMSO and 5 μl of each inhibitor preparation were aliquoted into each of three wells of a 96-well plate. Recombinant human calpain I, prepared by the method of Meyer et al. (Biochem. J. 1996, 314: 511–519; incorporated herein by reference in its entirety), was diluted into assay buffer (i.e., 50 mM Tris, 50 mM NaCl, 1 mM EDTA, 1 mM EGTA, and 5 mM β-mercaptoethanol, pH 7.5, including 0.2 mM Succ-Leu-Tyr-MNA), and 175 μl was aliquoted into the same wells containing the independent inhibitor stocks as well as to positive control wells containing 5 μl DMSO, but no compound. To start the reaction, 20 μl of 50 mM CaCl2 in assay buffer was added to all wells of the plate, excepting three, which were used as background signal baseline controls. Substrate hydrolysis was monitored every 5 minutes for a total of 30 minutes. Substrate hydrolysis in the absence of inhibitor was linear for up to 15 minutes.
Inhibition of calpain I activity was calculated as the percent decrease in the rate of substrate hydrolysis in the presence of inhibitor relative to the rate in its absence. Comparison between the inhibited and control rates was made within the linear range for substrate hydrolysis. The IC50s of inhibitors (concentration yielding 50% inhibition) were determined from the percent decrease in rates of substrate hydrolysis in the presence of five to seven different concentrations of the test compound. The results were plotted as percent inhibition versus log inhibitor concentration, and the IC50 was calculated by fitting the data to the four-parameter logistic equation shown below using the program GraphPad Prism (GraphPad Software, Inc., San Diego, Calif.). y=d+[(a−d)/(1+(x/c)^b)]
The parameters a, b, c, and d are defined as follows: a is % inhibition in the absence of inhibitor, b is the slope, c is the IC50, and d is the % inhibition at an infinite concentration of inhibitor.

IC50 | SMILES
17 nM | CSc1nccc(-c2ccc(S(=O)(=O)NCCNC(=O)C(=O)[C@H](Cc3ccccc3)NC(=O)[C@@H](COCc3ccccc3)NS(C)(=O)=O)s2)n1 [Compound 33]
18 nM | CS(=O)(=O)N[C@H](COCc1ccccc1)C(=O)N[C@@H](Cc1ccccc1)C(=O)C(=O)NCCNS(=O)(=O)c1ccc(S(=O)(=O)c2ccccc2)s1 [Compound 37]
144 nM | CS(=O)(=O)N[C@H](COCc1ccccc1)C(=O)N[C@@H](Cc1ccccc1)C(=O)C(=O)NCCNS(=O)(=O)CCc1ccncc1 [Compound 46]
11 nM | CC(C)C[C@H](NC(=O)OCc1ccccc1)C(=O)N[C@@H](Cc1ccccc1)C(=O)C(=O)NCCNS(=O)(=O)c1ccccc1 [Compound 17]
42 nM | CS(=O)(=O)N[C@H](COCc1ccccc1)C(=O)N[C@@H](Cc1ccccc1)C(=O)C(=O)NCCNS(=O)(=O)c1ccc(N)cc1 [Compound 22]
16 nM | CS(=O)(=O)N[C@H](COCc1ccccc1)C(=O)N[C@@H](Cc1ccccc1)C(=O)C(=O)NCCNS(=O)(=O)c1ccccc1 [Compound 9]
10 nM | CS(=O)(=O)N[C@H](COCc1ccccc1)C(=O)N[C@@H](Cc1ccccc1)C(=O)C(=O)NCCNS(=O)(=O)c1ccc(-c2ccon2)s1 [Compound 32]
63 nM | CS(=O)(=O)N[C@H](COCc1ccccc1)C(=O)N[C@@H](Cc1ccccc1)C(=O)C(=O)NCCNS(=O)(=O)c1ccc(-c2ccc(N)cc2)cc1 [Compound 40]
14 nM | CS(=O)(=O)N[C@H](COCc1ccccc1)C(=O)N[C@@H](Cc1ccccc1)C(=O)C(=O)NCCNS(=O)(=O)c1ccc(-c2ccccc2)s1 [Compound 29]
91 nM | CS(=O)(=O)NCCNC(=O)C(=O)[C@H](Cc1ccccc1)NC(=O)[C@@H](COCc1ccccc1)NS(C)(=O)=O [Compound 35]
64 nM | CN(C)Cc1ccc(S(=O)(=O)NCCNC(=O)C(=O)[C@H](Cc2ccccc2)NC(=O)[C@@H](COCc2ccccc2)NS(C)(=O)=O)cc1 [Compound 45]

same assay, conditions: Table 4, α-ketoamides

IC50 | SMILES
13 nM | COc1ccc(-c2ccc(S(=O)(=O)NCCNC(=O)C(=O)C(Cc3ccccc3)NC(=O)C(COCc3ccccc3)NS(C)(=O)=O)s2)cc1 (mixture of isomers) [Compound 82]
12 nM | CN(C)Cc1cccc(-c2ccc(S(=O)(=O)NCCNC(=O)C(=O)[C@H](Cc3ccccc3)NC(=O)[C@@H](COCc3ccccc3)NS(C)(=O)=O)s2)c1 [Compound 54]
18 nM | CS(=O)(=O)N[C@H](COCc1ccccc1)C(=O)N[C@@H](Cc1ccccc1)C(=O)C(=O)NCCNS(=O)(=O)c1ccc(CN2CCOCC2)cc1 [Compound 57]
23 nM | CC(=O)Nc1nc(C)c(S(=O)(=O)NCCNC(=O)C(=O)[C@H](Cc2ccccc2)NC(=O)[C@@H](COCc2ccccc2)NS(C)(=O)=O)s1 [Compound 96]
5 nM | CS(=O)(=O)N[C@H](COCc1ccccc1)C(=O)N[C@@H](Cc1ccccc1)C(=O)C(=O)NCCNS(=O)(=O)c1ccc(-c2cccc(C=O)c2)s1 [Compound 52]
32 nM | CS(=O)(=O)N[C@H](COCc1ccccc1)C(=O)N[C@@H](Cc1ccccc1)C(=O)C(=O)NCCS(=O)(=O)Nc1ccc(C(F)(F)F)cc1 [Compound 61]
40 nM | CS(=O)(=O)N[C@H](COCc1ccccc1)C(=O)N[C@@H](Cc1ccccc1)C(=O)C(=O)NCCNS(=O)(=O)c1ccc(-c2ccccc2CN2CCOCC2)s1 [Compound 93]
23 nM | CS(=O)(=O)N[C@H](COCc1ccccc1)C(=O)N[C@@H](Cc1ccccc1)C(=O)C(=O)NCCNS(=O)(=O)c1cc2ccccc2s1 [Compound 87]
44 nM | CS(=O)(=O)N[C@H](COCc1ccccc1)C(=O)N[C@@H](Cc1ccccc1)C(=O)C(=O)NCCNS(=O)(=O)c1ccc(-c2cccc(CN3CCC3)c2)s1 [Compound 106]
48 nM | CS(=O)(=O)NC(COCc1ccccc1)C(=O)NC(Cc1ccccc1)C(=O)C(=O)NC1CCN(S(=O)(=O)c2ccc(CN3CCOCC3)cc2)CC1 (mixture of isomers) [Compound 78]
19 nM | CN(CCNC(=O)C(=O)[C@H](Cc1ccccc1)NC(=O)[C@@H](COCc1ccccc1)NS(C)(=O)=O)S(=O)(=O)c1ccc(-c2cccc(C=O)c2)s1 [Compound 65]
21 nM | CS(=O)(=O)NC(C(=O)NC(Cc1ccccc1)C(=O)C(=O)NCCNS(=O)(=O)c1ccc(-c2ccccn2)s1)c1ccccc1 (mixture of isomers) [Compound 68]
17 nM | CS(=O)(=O)N[C@H](COCc1ccccc1)C(=O)N[C@@H](Cc1ccccc1)C(=O)C(=O)NCCNS(=O)(=O)c1ccc(-c2ccc(C=O)cc2)s1 [Compound 90]
47 nM | CS(=O)(=O)N[C@H](COCc1ccccc1)C(=O)N[C@@H](Cc1ccccc1)C(=O)C(=O)NCCS(=O)(=O)Nc1ccccc1 [Compound 60]
100 nM | CS(=O)(=O)N[C@@H](COCc1ccccc1)C(=O)N[C@@H](Cc1ccccc1)C(=O)C(=O)NCCNS(=O)(=O)c1ccccc1 [Compound 116]
21 nM | CN1CCN(Cc2cccc(-c3ccc(S(=O)(=O)NCCNC(=O)C(=O)[C@H](Cc4ccccc4)NC(=O)[C@@H](COCc4ccccc4)NS(C)(=O)=O)s3)c2)CC1 [Compound 58]
19 nM | COCC1CCCN1Cc1ccc(S(=O)(=O)NCCNC(=O)C(=O)[C@H](Cc2ccccc2)NC(=O)[C@@H](COCc2ccccc2)NS(C)(=O)=O)cc1 (stereo partly shown) [Compound 91]
22 nM | CCN(CC)Cc1cccc(-c2ccc(S(=O)(=O)NCCNC(=O)C(=O)[C@H](Cc3ccccc3)NC(=O)[C@@H](COCc3ccccc3)NS(C)(=O)=O)s2)c1 [Compound 101]
23 nM | CS(=O)(=O)N[C@H](COCc1ccccc1)C(=O)N[C@@H](Cc1ccccc1)C(=O)C(=O)NCCCS(=O)(=O)Nc1ccc(C(F)(F)F)cc1 [Compound 63]
18 nM | CS(=O)(=O)N[C@H](COCc1ccccc1)C(=O)N[C@@H](Cc1ccccc1)C(=O)C(=O)NCCCS(=O)(=O)Nc1ccccc1 [Compound 62]

same assay, conditions: Table 5, achiral P2 mimetic α-ketoamides

IC50 | SMILES
20 nM | O=C(NCCNS(=O)(=O)c1ccc(-c2ccccn2)s1)C(=O)[C@H](Cc1ccccc1)NC(=O)c1c(F)cccc1F [Compound 120]
> 1000 nM | O=C(NCCNS(=O)(=O)c1ccc(-c2ccccn2)s1)C(=O)[C@H](Cc1ccccc1)NC(=O)c1ccc2c(c1)OCO2 [Compound 123]
1500 nM | O=C(CCCc1ccccc1)N[C@@H](Cc1ccccc1)C(=O)C(=O)NCCNS(=O)(=O)c1ccc(-c2ccccn2)s1 [Compound 149]
36 nM | O=C(NCCNS(=O)(=O)c1ccc(-c2ccccn2)s1)C(=O)[C@H](Cc1ccccc1)NC(=O)c1c(Cl)cccc1Cl [Compound 118]
87 nM | CC(CCC(=O)N[C@@H](Cc1ccccc1)C(=O)C(=O)NCCNS(=O)(=O)c1ccc(-c2ccccn2)s1)c1ccccc1 (stereo partly shown) [Compound 148]
62 nM | O=C(NCCNS(=O)(=O)c1ccc(-c2ccon2)s1)C(=O)[C@H](Cc1ccccc1)NC(=O)c1c(F)cccc1F [Compound 136]
168 nM | CC(C)c1ccccc1C(=O)N[C@@H](Cc1ccccc1)C(=O)C(=O)NCCNS(=O)(=O)c1ccc(-c2ccon2)s1 [Compound 139]
29 nM | O=C(NCCNS(=O)(=O)c1ccc(-c2cccc(CN3CCOCC3)c2)s1)C(=O)[C@H](Cc1ccccc1)NC(=O)c1c(Cl)cccc1Cl [Compound 131]
1500 nM | CC(C)C(=O)N[C@@H](Cc1ccccc1)C(=O)C(=O)NCCNS(=O)(=O)c1ccc(-c2ccccn2)s1 [Compound 143]
